Test results from patent US8816090B2, “Benzisoxazole derivatives” (Pfizer Inc., priority 2005, dated 2014).

How the values were obtained:
Human 5-HT4(d) = target: T1, Human 5-HT4(d) (Homo sapiens, UniProt Q13639); test: Agonist-induced cAMP elevation in human 5-HT4(d) transfected HEK293 cells; format: cell-based; details: for Emax: HEK293, cAMP production normalized to the amount produced by 1,000 nM serotonin; for EC50: cAMP elevation (HTRF), human 5-HT4(d) transfected HEK293 cells
T1 construct: expressed in transfected cells
Method: Human 5-HT4(d) transfected HEK293 cells were established in-house. The cells were grown at 37° C. and 5% CO2 in DMEM supplemented with 10% FCS, 20 mM HEPES (pH 7.4), 200 μg/ml hygromycin B (Gibco), 100 units/ml penicillin and 100 μg/ml streptomycin.
The cells were grown to 60-80% confluence. On the previous day before treatment with compounds dialyzed FCS (Gibco) was substituted for normal and the cells were incubated overnight.
Compounds were prepared in 96-well plates (12.5 μl/well). The cells were harvested with PBS/1 mM EDTA, centrifuged and washed with PBS. At the beginning of the assay, cell pellet was resuspended in DMEM supplemented with 20 mM HEPES, 10 μM pargyline (Sigma) and 1 mM 3-isobutyl-1-methylxanthine (Sigma) at the concentration of 1.6×10^5 cells/ml and left for 15 min at room temperature. The reaction was initiated by addition of the cells into plates (12.5 μl/well). After incubation for 15 min at room temperature, 1% Triton X-100 was added to stop the reaction (25 μl/well) and the plates were left for 30 minutes at room temperature. Homogenous time-resolved fluorescence-based cAMP (Schering) detection was made according to the manufacturer's instruction. ARVOsx multilabel counter (Wallac) was used to measure HTRF (excitation 320 nm, emission 665 nm/620 nm, delay time 50 μs, window time 400 μs).
Data was analyzed based on the ratio of fluorescence intensity of each well at 620 nm and 665 nm followed by cAMP quantification using cAMP standard curve. Enhancement of cAMP production elicited by each compound was normalized to the amount of cAMP produced by 1,000 nM serotonin (Sigma).

T1 sequence (Q13639 1-360 isoform Q13639-3): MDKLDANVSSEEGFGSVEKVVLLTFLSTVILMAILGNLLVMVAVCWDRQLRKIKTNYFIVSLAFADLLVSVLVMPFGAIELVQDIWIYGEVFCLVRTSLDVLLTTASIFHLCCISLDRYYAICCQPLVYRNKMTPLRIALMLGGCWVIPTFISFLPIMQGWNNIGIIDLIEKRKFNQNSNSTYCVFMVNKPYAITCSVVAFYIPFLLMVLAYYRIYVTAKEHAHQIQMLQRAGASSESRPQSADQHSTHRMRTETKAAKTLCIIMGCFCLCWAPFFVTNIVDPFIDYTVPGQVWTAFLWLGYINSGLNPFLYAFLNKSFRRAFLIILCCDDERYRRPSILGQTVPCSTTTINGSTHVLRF

O=C(O)C1(CN2CCC(COc3noc4cccc(O[C@H]5CC[C@@H](CO)CC5)c34)CC2)CCOCC1 [Example 46, 4-[(4-{[(4-{[cis-4-(Hydroxymethyl)cyclohexyl]oxy}-1,2-benzisoxazol-3-yl)oxy]methyl}piperidin-1-yl)-methyl]tetrahydro-2H-pyran-4-carboxylic acid]
Emax (Human 5-HT4(d)): 45%
EC50 (Human 5-HT4(d)): 5.5 nM
melting point: 197.2 °C

O=C(O)C1(CN2CCC(COc3noc4cccc(O[C@H]5CC[C@@H](CO)CC5)c34)CC2)CCCC1 [Example 48, 1-[(4-{[(4-{[cis-4-(Hydroxymethyl)cyclohexyl]oxy}-1,2-benzisoxazol-3-yl)oxy]methyl}piperidin-1-yl)methyl]cyclopentanecarboxylic acid]
Emax (Human 5-HT4(d)): 43%
EC50 (Human 5-HT4(d)): 4.3 nM
melting point: 188 °C

O=C(O)C1(CN2CCC(COc3noc4cccc(OCC5(CO)CCC5)c34)CC2)CCC1 [Example 50]
Emax (Human 5-HT4(d)): 50%
EC50 (Human 5-HT4(d)): 98 nM
melting point: 194.2 °C

O=C(O)C1(CN2CCC(CNc3noc4cccc(OCC(F)(F)F)c34)CC2)CCOCC1 [Example 53, 4-{[4-({[4-(2,2,2-Trifluoroethoxy)-1,2-benzisoxazol-3-yl]amino}methyl)piperidin-1-yl]methyl}-tetrahydro-2H-pyran-4-carboxylic acid]
Emax (Human 5-HT4(d)): 59%
EC50 (Human 5-HT4(d)): 2.8 nM
melting point: 171.9 °C
